In patent publication US20230139826A1 (NONO INC., priority 2020, published 2023):
Residues, ends and D or L forms follow the SMILES beside them.

Columns and labels:
[1] = Nerinetide plasma levels in ESCAPE-NA1 subjects with and without alteplase; type: in vivo, human
Protocol: All patients had standard assessments of demographic characteristics, medical history, laboratory values and stroke severity (NIHSS score). In some patients, up to 6 consecutive blood samples were drawn following dosing for pharmacokinetic analysis of nerinetide levels.
Nerinetide plasma levels were obtained from 22 subjects in ESCPAE-NA1 and previously acquired data from 8 healthy volunteer subjects receiving a single dose of 2.6 mg/kg nerinetide intravenously. Time 0 is a preinfusion time-point. […] The bars represent standard error of the mean. […] In the presence of alteplase, nerinetide's maximum level was reduced by more than 50% with decline to background level by 60 minutes. […] (p=0.0119, mixed effects linear regression).

[2] = In-vitro peptide degradation assay in rat plasma with rt-PA or TNK
Protocol: To determine nerinetide stability in the presence of rt-PA in plasma, we use an in-vitro peptide content analysis by HPLC. In brief, Nerinetide or D-Tat-L-2B9c were spiked into rat or human plasma at a concentration of 65 ug/ml. rt-PA was added after the baseline time-point was collected, at the specified concentrations. rt-PA administration followed the clinical dosing approach [10% bolus dose followed by 60-mins infusion (90% of the dose)], using a Harvard apparatus pump. Sample collection following IV bolus was performed at 5 min, 15 min, 30 min and 45 min post-dose. At each time point, approximately 100 uL of plasma was collected from each vial using a fresh syringe. Plasma was then collected and stored at -80° C. until analyzed.
Nerinetide or D-Tat-L2B9c was extracted by precipitation with 1M perchloric acid. All analyses were performed on an Agilent 1260 Infinity Quaternary LC System (Agilent Technologies, Santa Clara, Calif., USA) and on a 25 cm [YMAA12S052546WT] C-18 RP-HPLC column (Agilent Technologies, Santa Clara, Calif., USA). The column was equilibrated with 10% acetonitrile with 0.1% TFA at 40° C. The eluent flow was 1.5 ml/min (gradient from 10% to 35% acetonitrile in 0.1% TFA) The UV trace was recorded at 220 nm. Concentrations of nerinetide or D-Tat-L-2B9c were derived from calibration standards obtained by spiking the agent into plasma.

## CC[C@H](C)[C@H](NC(=O)[C@H](CO)NC(=O)[C@H](CO)NC(=O)[C@H](CC(C)C)NC(=O)[C@H](CCCCN)NC(=O)[C@H](CCCN=C(N)N)NC(=O)[C@H](CCCN=C(N)N)NC(=O)[C@H](CCCN=C(N)N)NC(=O)[C@H](CCC(N)=O)NC(=O)[C@H](CCCN=C(N)N)NC(=O)[C@H](CCCN=C(N)N)NC(=O)[C@H](CCCCN)NC(=O)[C@H](CCCCN)NC(=O)[C@H](CCCN=C(N)N)NC(=O)CNC(=O)[C@@H](N)Cc1ccc(O)cc1)C(=O)N[C@@H](CCC(=O)O)C(=O)N[C@@H](CO)C(=O)N[C@@H](CC(=O)O)C(=O)N[C@H](C(=O)O)C(C)C [Nerinetide] (H-YGRKKRRQRRRKLSSIESDV-OH)
[1]; absence of alteplase
  time of decline of plasma level to background: about 120 minutes
[1]; absence of alteplase, 2.6 mg/kg iv
  time at which plasma peak levels were reached: ten
[1]; presence of alteplase
  AUC change: similarly reduced
  reduction of maximum plasma level: more than 50%
  time of decline of plasma level to background: 60 min
[2]; 65 ug/ml nerinetide, 37° C., alteplase over 60 minutes
  nerinetide content in rat plasma on addition of alteplase: reduced the nerinetide content in rat plasma in a concentration-dependent manner
[2]; TNK 37.5 ug/ml
  elimination in rat plasma with tenecteplase (TNK): rapid elimination
[2]; absence of alteplase
  stability alone in rat plasma: stable
[2]; rt-PA 135 ug/ml
  degradation in rat plasma with alteplase: rapid degradation
